We go through six compounds from patent publication US20250213561A1, “SELECTIVE HYPOTHALAMUS PERMEABLE HDAC6 INHIBITORS FOR TREATMENT OF LEPTIN-RESISTANT OBESITY” (The Children’s Medical Center Corporation, priority 2022, published 2025).

In data set [1] the target is HDAC6 (Mus musculus (Mouse), UniProt Q9Z2V5). Kind of data set: Ac-tubulin immunoblotting of tissues (HDAC6 inhibition in hypothalamus and brain regions). To be noted: for HDAC6 inhibition in other brain regions: cerebrum, frontal lobe, temporal lobe, brainstem; for HDAC6 inhibition in the hypothalamus: mouse, in vivo. It counts as in vivo, mice. (In general: A western blot detects proteins with antibodies after separation by electrophoresis.)
Chain of HDAC6 (Mus musculus (Mouse), UniProt Q9Z2V5) (Q9Z2V5 whole entry): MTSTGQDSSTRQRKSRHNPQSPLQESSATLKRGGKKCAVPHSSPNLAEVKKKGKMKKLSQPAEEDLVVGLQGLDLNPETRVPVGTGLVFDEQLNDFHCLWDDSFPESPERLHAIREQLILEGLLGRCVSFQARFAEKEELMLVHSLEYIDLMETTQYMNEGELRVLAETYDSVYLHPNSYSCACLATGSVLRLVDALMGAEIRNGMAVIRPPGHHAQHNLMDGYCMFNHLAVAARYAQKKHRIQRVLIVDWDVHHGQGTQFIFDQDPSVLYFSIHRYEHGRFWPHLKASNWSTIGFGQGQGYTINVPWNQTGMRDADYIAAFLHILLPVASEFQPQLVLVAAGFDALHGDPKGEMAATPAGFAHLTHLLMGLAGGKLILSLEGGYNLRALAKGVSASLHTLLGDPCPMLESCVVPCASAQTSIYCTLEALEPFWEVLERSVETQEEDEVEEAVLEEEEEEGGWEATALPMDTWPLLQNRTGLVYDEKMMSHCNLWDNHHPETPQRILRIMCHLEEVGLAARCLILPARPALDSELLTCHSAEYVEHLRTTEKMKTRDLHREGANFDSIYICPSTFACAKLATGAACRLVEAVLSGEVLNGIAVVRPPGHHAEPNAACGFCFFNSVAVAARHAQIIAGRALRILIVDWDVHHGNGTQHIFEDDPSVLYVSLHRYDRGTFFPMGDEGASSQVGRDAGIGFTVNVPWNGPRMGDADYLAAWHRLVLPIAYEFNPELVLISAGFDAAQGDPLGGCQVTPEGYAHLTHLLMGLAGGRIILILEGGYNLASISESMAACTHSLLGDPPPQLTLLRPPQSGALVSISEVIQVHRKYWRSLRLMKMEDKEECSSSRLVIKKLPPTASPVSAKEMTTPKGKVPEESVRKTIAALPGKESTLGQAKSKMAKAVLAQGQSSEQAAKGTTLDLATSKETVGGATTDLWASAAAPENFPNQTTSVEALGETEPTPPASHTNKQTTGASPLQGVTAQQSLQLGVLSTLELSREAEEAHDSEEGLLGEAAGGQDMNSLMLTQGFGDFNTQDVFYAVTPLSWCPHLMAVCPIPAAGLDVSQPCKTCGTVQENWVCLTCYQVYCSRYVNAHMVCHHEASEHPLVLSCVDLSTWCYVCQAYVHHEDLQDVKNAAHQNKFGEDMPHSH

Data set [2] deals with DIO mice. Kind of data set: Chronic treatment of DIO mice (body weight, food intake, DEXA, glucose homeostasis). It counts as in vivo. To be noted: for body weight: 3 weeks i.p., ricolinostat 50 mg/kg, bavarostat 10 mg/kg, citarinostat 25 mg/kg; for food intake: 3 weeks treatment. The procedure: DIO mice were treated with ACY775 (10 mg/kg/day, i.p.) for 3 weeks. Daily body weight (g) of DIO mice treated with vehicle (n=17) or ACY775 (n=17) during 3 weeks of treatment was determined. Daily food intake (g) during 3 weeks of vehicle or ACY775 treatment was assessed. 24 hours' food intake per mouse during the first week of vehicle or ACY775 treatment was determined. Serum leptin (ng/ml) levels after 3 weeks of vehicle (n=24) or ACY775 (n=24) treatment was assessed. Lean mass (g), fat mass (g) and fat percentage (%) after 3 weeks of vehicle (n=17) or ACY775 (n=17) treatment measured by Dual-energy X-ray absorptiometry (DEXA) scan. DEXA scans were performed in two different cohorts. Glucose tolerance test (GTT) after 1 week of vehicle (n=33) or ACY775 (n=26) treated DIO mice was assessed. Area of curve (AOC) analysis for GTT was performed. Blood glucose (mg/dl) levels after 1 week of vehicle (n=17) or ACY775 (n=16) were assessed in treated DIO mice. Insulin tolerance test (ITT) was performed after 2 weeks of vehicle (n=31) or ACY775 (n=21) treatment of DIO mice. Serum insulin (ng/ml) levels were measured after 3 weeks of vehicle (n=22) or ACY775 (n=21) in treated DIO mice. A homeostatic model assessment of insulin resistance (HOMA-IR) was analyzed after 3 weeks of vehicle (n=14) or ACY775 (n=13) treated DIO mice.
Food intake was analyzed hourly until 3:00 am. […] DEXA scans were performed in two different cohorts.
DIO mice then were treated with ricolinostat (50 mg/kg, i.p.) for 3 weeks. Daily body weight (g), daily food intake (g), serum leptin (ng/ml) levels after 3 weeks of vehicle (n-8) or ricolinostat (n=8) treatment, lean mass (g); fat mass and fat percentage (%) after 3 weeks of vehicle (n=16) or ricolinostat (n=17) treatment measured by DEXA scan were determined.
Blood glucose (mg/dl) levels were measured after 1 week of vehicle (n=16) or ricolinostat (n=16) treated DIO mice. GTT after 1 week of vehicle (n=17) or ricolinostat (n=16) treatment of DIO mice was assessed. AOC analysis for GTT was performed. ITT after 2 weeks of vehicle (n=17) or ricolinostat (n=16) treated DIO mice was measured. Serum insulin (ng/ml) levels after 3 weeks of vehicle (n=8) or ricolinostat (n=8) treatment were measured in DIO mice. Liver sections from 3 weeks of vehicle or ricolinostat treated DIO mice were stained by H&E.
DIO mice then were treated with bavarostat (10 mg/kg, i.p.) for 3 weeks and daily body weight (g) of DIO mice treated with Veh (n=9) or bavarostat (n=9) measured during the three weeks of treatment period. Daily food intake (g) during 3 weeks of Veh or bavarostat treatment was also measured.
ACY1083 was administered to DIO mice as described in Example 3.

For data set [3], the system named is ACY775-responsive DMH neurons. Kind of data set: Chemogenetic (hM3Dq) activation of ACY775-responsive DMH neurons. To be noted: ACY775-induced hM3Dq TRAP2 DIO mice. Type of data set: in vivo. The protocol: Next, the ACY775-responsive DMH neurons were chemogenically activated to investigate whether activation of these neurons would be sufficient to reduce the food intake and the bodyweight. Adeno-associated virus (AAV) carrying Cre-dependent hM3Dq-DREADD fused to mCherry transgene (AAV-DIO-hM3Dq-mCherry) was injected bilaterally into the DMH of TRAP2 DIO mice. Four weeks after injections, a single dose of ACY775 (10 mg/kg, i.p.) or vehicle was injected to induce c-fos expression. Subsequently, 4-OHT injection was performed after 5 h to activate c-fos driven Cre in the fasted DIO mice. The mCherry signal was expressed only in ACY775-treated TRAP2 DIO mice and was absent in vehicle-treated TRAP2 DIO mice.
Next, both AAV-DIO-hM3Dq-mCherry- and ACY775-injected, and vehicle-treated TRAP2 DIO mice with saline were treated for 3 days and with clozapine N-oxide (CNO) for 4 days. […] The blood glucose levels at the end of saline and CNO treatment was also measured. […] Blood glucose lowering effect of CNO was absent compared in Veh-induced TRAP2 DIO mice and in all the saline-treated mice.

Data set [4] in a line: Brain/plasma ratio and brain or hypothalamus penetration. To be noted: in vivo.
For data set [5] the following is noted: in vivo; cited from earlier work.
In data set [6] the test system is HDAC6-KO DIO mice. Kind of data set: Chronic treatment of DIO WT versus HDAC6 KO mice. Type of data set: in vivo. To be noted: DIO mice, 3 weeks; ACY775 10, ACY738 50, Tubastatin A 25 mg/kg/day i.p.
Data set [7] has as its system p-STAT3^Tyr705. Kind of data set: Leptin-stimulated hypothalamic STAT3 Tyr705 phosphorylation in DIO mice. It counts as in vivo. Conditions: 45 minutes after leptin 1 mg/kg i.p. The protocol:
DIO mice were pretreated with ACY775 (10 mg/kg/day, i.p.) or vehicle for 3 days, which was followed by a last injection of ACY775 (or vehicle) in the morning of fourth day. 6 hours later mice were injected with saline or leptin (1 mg/kg, i.p.) and hypothalamus were extracted after 45 minutes following the leptin injection. Representative immunoblots for STAT3^Tyr705 phosphorylation and total STAT3 from the hypothalamus. Quantification of the ratio of p-STAT3^Tyr705 to total-STAT3 signal in the immunoblots. The results were reproduced in three independent experiments. The results were analyzed hourly.
DIO mice were pretreated with ACY775 (10 mg/kg/day, i.p.) or vehicle for 3 days, which was followed by a last injection of ACY775 (or vehicle) in the morning of fourth day. 6 hours later mice were injected with saline or leptin (1 mg/kg, i.p.) and the hypothalamus were extracted after 45 minutes following the leptin injection.
6 hours later mice were injected with saline or leptin (1 mg/kg, i.p.) and hypothalamus were extracted after 45 minutes following the leptin injection. Immunoblots for STAT3^Tyr705 phosphorylation and total STAT3 from the hypothalamus were made to quantify the ratio of p-STAT3^Tyr705 to total-STAT3 signal in the immunoblots. The results were reproduced in two independent experiments.
DIO mice were pretreated with ricolinostat (50 mg/kg/day, i.p.) or vehicle 3 days, which was followed by a last injection of ricolinostat (or vehicle) in the morning of fourth day. 6 hours later mice were injected with saline or leptin (1 mg/kg, i.p.) and the hypothalamus were extracted after 45 minutes following the leptin injection. Immunoblots were performed for STAT3^Tyr705 phosphorylation and total STAT3 from the hypothalamus. The ratio of p-STAT3^Tyr705 to total STAT3 signal in the immunoblots was quantified.

The subject of data set [8] is DIO mice. Kind of data set: Acute leptin co-treatment in DIO mice (body weight, food intake 15 h). To be noted: for body weight, agent alone: ACY775 10 mg/kg, ricolinostat 25 mg/kg. Type of data set: in vivo. The procedure: DIO mice were pretreated with ACY775 (10 mg/kg/day, i.p.) or vehicle for 3 days, which was followed by co-treatment with ACY775 (or vehicle) and leptin (1 mg/kg, i.p.) (or saline) (n=9 for each group), % change in body weight 15 h after leptin treatment, food intake (g) during the 15 h period after leptin treatment. The results in were reproduced in two independent experiments.
Diet induced obese (DIO) mice were pretreated with ACY775 (10 mg/kg/day, i.p.) or vehicle for 3 days, which was followed by co-treatment with ACY775 (or vehicle) and leptin (1 mg/kg, i.p.) (or saline) (n=9 for each group). Mice were evaluated for % change in body weight 15 h after leptin treatment, and food intake (g) during the 15 h period after leptin treatment.
DIO mice were pretreated with ricolinostat (25 mg/kg/day, i.p.) or vehicle for 3 days, which was followed by co-treatment with ricolinostat (or vehicle) and leptin (1 mg/kg, i.p.) (or saline) (n=32 for each group). Change in body weight 15 h after leptin treatment, and food intake (g) during the 15 h period after leptin treatment were determined. The results were reproduced in two independent experiments.

Data set [9] relates to HDAC6. Kind of data set: Ac-tubulin immunoblotting in HEK293 cells. Type of data set: cell-based.

Entries after “also recorded” stand apart in the source; their conditions may differ.

On to `CC1CCC(C(C)(C2CCC(C)CC2)C2CCC(C(C)C(C)CCCCC(C)C(C)C)CC2)CC1` (stereo not drawn) [ACY257], for which the “HDAC6 inhibition in other brain regions” value in data set [1] is on record as “does not inhibit HDAC6 in other brain regions”. The “body weight” value in data set [2] (DIO mice) is listed as “as effective as ACY775 in reducing body weight”.

For `C[N+]1([O-])CCN(C2=Nc3cc(Cl)ccc3Nc3ccccc32)CC1` [CNO, clozapine N-oxide], in data set [3], the blood glucose levels entry was “significantly decreased blood glucose levels”. In data set [3] (CNO 4 days), the “bodyweight and food intake” value is “significant reduction in bodyweight and food intake”.

As for `CN(Cc1ccc(C(=O)NO)cc1F)CC12CC3CC(CC(C3)C1)C2` [bavarostat, 4-(((((3r,5r,7r)-adamantan-1-yl)methyl)(methyl)amino)methyl)-3-fluoro-N-hydroxybenzamide], the “penetrance into the hypothalamus” value in data set [4] is given as “high penetrance of the hypothalamus”. Also, in data set [2] (DIO mice), the “body weight” value was “statistically significantly effective in reducing food intake and body weight”; the “food intake” value is reported as “Appetite was initially suppressed but then rose over time”. In addition, the “food intake and total body fat mass (summary)” value in data set [2] (high fat diet induced mice) was “significant reduction of food intake and total body fat mass”. For the same compound, the “brain penetrance / BBB permeability” value in data set [5] is given as “high brain penetrance”. Further, the “body weight, WT versus HDAC6 KO” value in data set [6] is “treatment of wild type mice but not HDAC6 Knockout animals with bavarostat caused weight loss; also recorded: equivalent to vehicle in HDAC-6 KO mice”.

As for `O=C(CCCCCCNC(=O)c1cnc(N(c2ccccc2)c2ccccc2Cl)nc1)NO` [citarinostat], in data set [1], the “HDAC6 inhibition in other brain regions” value is given as “inhibits HDAC6 in other brain regions” and the “HDAC6 inhibition in the hypothalamus” value is on record as “does not show HDAC6 inhibition in the AGP neurons in the hypothalamus”. Besides, in data set [1] (listed as Citarinostat), the “HDAC6 inhibition in the hypothalamus” value is “but not in the hypothalamus”. The “body weight” value in data set [2] (DIO mice) is recorded as “not effective in reducing body weight”. Also, the “brain penetrance / BBB permeability” value in data set [5] was “good brain penetrance”.

In the case of `O=C(CCCCCCNC(=O)c1cnc(N(c2ccccc2)c2ccccc2)nc1)NO` [ricolinostat], in data set [4], the “penetrance into the hypothalamus” value is “neither of which have high penetrance into the hypothalamus”. Also, the “leptin-stimulated hypothalamic p-STAT3^Tyr705” value in data set [7] is “did not significantly increase STAT3^Tyr705 phosphorylation”. In addition, in data set [8] (15 h, leptin 1 mg/kg i.p.), the “body weight, agent alone” value was “did not decrease the bodyweight”. Besides, in data set [8] (15 h period), the “food intake, agent alone” value is on record as “had no effect on the food intake”. The “body weight, leptin after pre-treatment with inhibitor” value in data set [8] (3 days pre-treatment, leptin 1 mg/kg i.p., 15 h) is “did not reduce the body weight”. In addition, the “food intake, leptin together with inhibitor” value in data set [8] (leptin 1 mg/kg i.p., 15 h period) is “had no effect on the food intake”. Moreover, the “tubulin acetylation (HDAC6 inhibitor activity in cells)” value in data set [9] is listed as “confirmation of Ricolinstat's HDAC6 inhibitory activity”. In data set [2] (DIO mice), the “insulin tolerance test (ITT)” value is “did not improves”, the “body weight” value is “minimal decrease in bodyweight for the first couple of days without creating any meaningful or significant decreases; also recorded: does not reduce body weight” and the “food intake” value is “reduced transitionally during the first 2-3 days of treatment but then rebounded”. Moreover, the “hepatic steatosis (H&E liver)” value in data set [2] (DIO mice, 3 weeks) is listed as “no decrease in the hepatic steatosis”. The “glucose tolerance test (GTT)” value in data set [2] (DIO mice, after 1 week) is listed as “did not improves glucose tolerance”. For the same compound, the serum insulin levels entry in data set [2] (DIO mice, after 3 weeks) is given as “did not reduce insulin levels”. Moreover, in data set [5], the “brain penetrance / BBB permeability” value was “poor BBB permeability” and the brain/plasma ratio is less than 0.01.

As for “leptin: peptide hormone that serves as the afferent signal in a negative feedback loop regulating food intake and body weight”, the “leptin-stimulated hypothalamic p-STAT3^Tyr705” value in [7] was “did not significantly increase STAT3^Tyr705 phosphorylation”. Further, in [8] (15 h, leptin 1 mg/kg i.p.), the “body weight, agent alone” value is listed as “did not significantly alter their bodyweight; also recorded: did not change their bodyweight”. For the same compound, in [8] (15 h period), the “food intake, agent alone” value is reported as “did not significantly change the food intake”.
